Earlier results in USRE39705E1, “Method of treating glutathione deficient mammals” (Vit-Immune, L.C., priority 1998, dated 2007).
One block for each compound: values may come before it.

Key:
[1] = not given; remark: listed apart in the source

SMILES: O=C(O)CCCCC1CCSS1 (stereo not drawn) [Alpha lipoic acid, alpha lipoic acid]
intracellular reduced glutathione (in vitro and in vivo (literature)): substantial increase

SMILES: N[C@@H](CS)C(=O)O [Example 1-cysteine, 1-cysteine]
GSH levels (substituted into the diet in place of the total protein allowance): effective in raising GSH levels

SMILES: NC(=O)CC[C@H](N)C(=O)O [L-glutamine]
liver glutathione (after lethal hepatic injury): preserve liver glutathione

absorption of oral supplementation by the mammal's cells [1]: not well absorbed
replenishment of intracellular glutathione losses ([1]; oral): does not replenish losses inside cells
SMILES: N[C@@H](CCC(=O)N[C@@H](CS)C(=O)NCC(=O)O)C(=O)O [glutathione, γ-L-Glutamyl-L-cysteinylglycine]
